Target: T1, JAK1 kinase (Homo sapiens, UniProt P23458)
T1 construct: purchased Invitrogen PV4744
Experiment: In vitro inhibitory activity on JAK1 kinase (ADP-Glo Kinase Assay)
Assay type: biochemical
Details: JAK1 kinase 4 nM, 1 mM ATP
Protocol: Test Example 1: Determination of In Vitro Inhibitory Activity of the Compounds of the Present Invention on JAK1 Kinase Experimental materials: JAK1 kinase (Invitrogen, PV4744), ATP (Promega, V915B), ADP-Glo Kinase Assay (Promega, V9101), IRS1 (Signalchem, 140-58-1000). Sample preparation: The compounds of the present invention and the control product were dissolved in DMSO solvent respectively to formulate into 10 mM initial liquid. The maximum concentration of the compound was 10 μM, 3-fold dilution, 10 concentration gradients, and duplicate wells for each concentration gradient. Experimental processs: 0.1 μL of the compound to be tested was transferred into a 384 reaction plate (PE, 6007290) via Echo and centrifuged at 1000 rpm/min for 1 min. 5 μL JAK1 kinase (final concentration of 4 nM) was transferred into the 384 reaction plate, which was then centrifuged at 1000 rpm/min for 1 min, and incubated at 25° C. for 15 min. 5 μL substrate mixture (1 mM ATP, IRS1 0.05 mg/ml, kinase buffer solution) was transferred into the 384 reaction plate, which was then centrifuged at 1000 rpm/min for 1 min, and incubated at 25° C. for 60 min. 10 μL ADP-Glo was transferred into the 384 reaction plate, which was then centrifuged at 1000 rpm/min for 1 min, and incubated at 25° C. for 40 min. 20 μL test solution was transferred into the 384 reaction plate, which was then centrifuged at 1000 rpm/min for 1 min and incubated at 25° C. for 40 min. RLU (Relative luminescence unit) signal was read by using an Envision multifunctional plate reader. The signal intensity was used to characterize the degree of the kinase activity. […] IC50 value of 0-100 nM is shown as A, IC50 value of 100-300 nM is shown as B, IC50 value of 300-1000 nM is shown as C, and IC50 value which is greater than 1000 nM is shown as D. NT means not tested.

T1 sequence (P23458 866-1154 limits assumed): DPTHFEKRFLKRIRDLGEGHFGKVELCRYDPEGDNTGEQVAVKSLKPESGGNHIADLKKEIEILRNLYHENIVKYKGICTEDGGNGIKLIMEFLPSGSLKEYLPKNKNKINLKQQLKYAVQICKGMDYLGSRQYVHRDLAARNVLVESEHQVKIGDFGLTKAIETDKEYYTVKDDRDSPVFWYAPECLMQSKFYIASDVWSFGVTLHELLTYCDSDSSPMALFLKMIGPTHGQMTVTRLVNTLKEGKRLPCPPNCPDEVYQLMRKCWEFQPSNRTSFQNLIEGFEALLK

Structure (SMILES)	IC50 [nM]
Cn1cc(Nc2nccc(C3=CC4CCC(C3)N4C(=O)NCC(F)F)n2)cn1 (stereo not drawn) [Compound 44, N-(2,2-difluoroethyl)-3-(2-((1-methyl-1H-pyrazol-4-yl)amino)pyrimidin-4-yl)-8-azabicyclo[3.2.1]oct-2-ene-8-carboxamide]	< 100
Cn1cc(Nc2nccc(C3=CC4CCC(C3)N4C(=O)C3CC3C(F)(F)F)n2)cn1 (stereo not drawn) [Compound 49, (3-(2-((1-methyl-1H-pyrazol-4-yl)amino)pyrimidin-4-yl)-8-azabicyclo[3.2.1]oct-2-en-8-yl)(2-(trifluoromethyl)cyclopropyl)methanone]	< 100
Cn1cc(Nc2ncc(F)c(C3=CC4CCC(C3)N4C(=O)[C@@H]3CC3(F)F)n2)cn1 (stereo partly drawn) [Compound 21, ((S)-2,2-difluorocyclopropyl)(3-(5-fluoro-2-((1-methyl-1H-pyrazol-4-yl)amino)pyrimidin-4-yl)-8-azabicyclo[3.2.1]oct-2-en-8-yl)methanone]	< 100
Cc1cnc(Nc2cnn(CC(C)(C)O)c2)nc1C1=C[C@H]2CC[C@@H](C1)N2C(=O)NCC(F)(F)F [Compound 29-b, (1R,5S)-3-(2-((1-(2-Hydroxy-2-methylpropyl)-1H-pyrazol-4-yl)amino)-5-methylpyrimidin-4-yl)-N-(2,2,2-trifluoroethyl)-8-azabicyclo[3.2.1]oct-2-ene-8-carboxamide]	< 100
Cn1cc(Nc2ncc(F)c(C3=C[C@@H]4CC[C@H](C3)N4C(=O)NCC(F)(F)F)n2)cn1 (single isomer, unassigned) [Compound 12-a]	< 100
Cn1cc(Nc2nccc(C3=CC4CCC(C3)N4S(=O)(=O)CCC(F)(F)F)n2)cn1 (stereo not drawn) [Compound 6, N-(1-methyl-1H-pyrazol-4-yl)-4-(8-((3,3,3-trifluoropropyl)sulfonyl)-8-azabicyclo[3.2.1]oct-2-en-3-yl)pyrimidin-2-amine]	> 1000
Cn1cc(Nc2nccc(C3=CC4CCC(C3)N4C(=O)C34CC(C(F)(F)F)(C3)C4)n2)cn1 (stereo not drawn) [Compound 71, (3-(2-((1-methyl-1H-pyrazol-4-yl)amino)pyrimidin-4-yl)-8-azabicyclo[3.2.1]oct-2-en-8-yl)(3-(trifluoromethyl)bicyclo[1.1.1]pentan-1-yl)methanone]	> 1000
Cc1cnc(Nc2cnn(C3CC3)c2)nc1C1=CC2CCC(C1)N2C(=O)NCC(F)(F)F (stereo not drawn) [Compound 31, 3-(2-((1-Cyclopropyl-1H-pyrazol-4-yl)amino)-5-methylpyrimidin-4-yl)-N-(2,2,2-trifluoroethyl)-8-azabicyclo[3.2.1]oct-2-ene-8-carboxamide]	< 100
Cc1cnc(Nc2cnn(C)c2)nc1C1=CC2CCC(C1)N2C(=O)NCC(F)(F)F (stereo not drawn) [Compound 19, 3-(5-methyl-2-((1-methyl-1H-pyrazol-4-yl)amino)pyrimidin-4-yl)-N-(2,2,2-trifluoroethyl)-8-azabicyclo[3.2.1]oct-2-ene-8-carboxamide]	< 100
Cn1cc(Nc2nccc(C3=CC4CCC(C3)N4C(=O)CC(F)(F)F)n2)cn1 (stereo not drawn) [Compound 65, 3,3,3-trifluoro-1-(3-(2-((1-methyl-1H-pyrazol-4-yl)amino)pyrimidin-4-yl)-8-azabicyclo[3.2.1]oct-2-en-8-yl)-1-acetone]	100 to 300
Cn1cc(Nc2ncc(S(C)(=O)=O)c(C3=CC4CCC(C3)N4C(=O)NCC(F)(F)F)n2)cn1 (stereo not drawn) [Compound 34, 3-(2-((1-methyl-1H-pyrazol-4-yl)amino)-5-(methylsulfonyl)pyrimidin-4-yl)-N-(2,2,2-trifluoroethyl)-8-azabicyclo[3.2.1]oct-2-ene-8-carboxamide]	> 1000
Cn1cc(Nc2nccc(C3=CC4CCC(C3)N4C(=O)C3CC(CO)C3)n2)cn1 (stereo not drawn) [Compound 81, (3-(hydroxymethyl)cyclobutyl)(3-(2-((1-methyl-1H-pyrazol-4-yl)amino)pyrimidin-4-yl)-8-azabicyclo[3.2.1]oct-2-en-8-yl)methanone]	> 1000
C#CCC(=O)N1C2C=C(c3ccnc(Nc4cnn(C)c4)n3)CC1CC2 (stereo not drawn) [Compound 53, 1-(3-(2-((1-methyl-1H-pyrazol-4-yl)amino)pyrimidin-4-yl)-8-azabicyclo[3.2.1]oct-2-en-8-yl)but-3-yn-1-one]	> 1000
CC(C)n1cc(Nc2nccc(C3=CC4CCC(C3)N4C(=O)[C@@H]3CC3(F)F)n2)cn1 (stereo partly drawn) [Compound 46, ((S)-2,2-Difluorocyclopropyl)(3-(2-((1-isopropyl-1H-pyrazol-4-yl)amino)pyrimidin-4-yl)-8-azabicyclo[3.2.1]oct-2-en-8-yl)methanone]	100 to 300
CC(C(=O)N1C2C=C(c3ccnc(Nc4cnn(C)c4)n3)CC1CC2)C(F)(F)F (stereo not drawn) [Compound 67, 3,3,3-trifluoro-2-methyl-1-(3-(2-((1-methyl-1H-pyrazol-4-yl)amino)pyrimidin-4-yl)-8-azabicyclo[3.2.1]oct-2-en-8-yl)-1-acetone]	300 to 1000
Cn1cc(Nc2ncc(F)c(C3=C[C@H]4CC[C@@H](C3)N4C(=O)NCC(F)(F)F)n2)cn1 [Compound 12-b, (1R,5S)-3-(5-fluoro-2-((1-methyl-1H-pyrazol-4-yl)amino)pyrimidin-4-yl)-N-(2,2,2-trifluoroethyl)-8-azabicyclo[3.2.1]oct-2-ene-8-carboxamide]	< 100
Cn1cc(Nc2ncc(Cl)c(C3=CC4CCC(C3)N4C(=O)NCC(F)(F)F)n2)cn1 (stereo not drawn) [Compound 20, 3-(5-chloro-2-((1-methyl-1H-pyrazol-4-yl)amino)pyrimidin-4-yl)-N-(2,2,2-trifluoroethyl)-8-azabicyclo[3.2.1]oct-2-ene-8-carboxamide]	< 100
Cc1cnc(Nc2cnn(C)c2)nc1C1=C[C@H]2CC[C@@H](C1)N2C(=O)[C@@H]1CC1(F)F [Compound 22-b, ((S)-2,2-difluorocyclopropyl)((1R,5S)-3-(5-methyl-2-((1-methyl-1H-pyrazol-4-yl)amino)pyrimidin-4-yl)-8-azabicyclo[3.2.1]oct-2-en-8-yl)methanone]	< 100
Cc1cnc(Nc2cn(C)nc2C)nc1C1=C[C@@H]2CC[C@H](C1)N2C(=O)NCC(F)(F)F [Compound 26-a, (1S,5R)-3-(2-((1,3-dimethyl-1H-pyrazol-4-yl)amino)-5-methylpyrimidin-4-yl)-N-(2,2,2-trifluoroethyl)-8-azabicyclo[3.2.1]oct-2-ene-8-carboxamide]	> 1000
CCCS(=O)(=O)N1CC(N2C3C=C(c4ccnc(Nc5cnn(C)c5)n4)CC2CC3)C1 (stereo not drawn) [Compound 84, N-(1-methyl-1H-pyrazol-4-yl)-4-(8-(1-(propansulfonyl)azetidin-3-yl)-8-azabicyclo[3.2.1]oct-2-en-3-yl)pyrimidin-2-amine]	> 1000
Cc1cnc(Nc2cnn(C)c2Cl)nc1C1=CC2CCC(C1)N2C(=O)NCC(F)(F)F (stereo not drawn) [Compound 32, 3-(2-((5-chloro-1-methyl-1H-pyrazol-4-yl)amino)-5-methylpyrimidin-4-yl)-N-(2,2,2-trifluoroethyl)-8-azabicyclo[3.2.1]oct-2-ene-8-carboxamide]	100 to 300
Cn1cc(Nc2nccc(C3=CC4CCC(C3)N4C(=O)C34CC(C#N)(C3)C4)n2)cn1 (stereo not drawn) [Compound 73, 3-(3-(2-((1-methyl-1H-pyrazol-4-yl)amino)pyrimidin-4-yl)-8-azabicyclo[3.2.1]oct-2-ene-8-formyl)bicyclo[1.1.1]pentane-1-carbonitrile]	> 1000
Cn1cc(Nc2ncc(Cl)c(C3=CC4CCC(C3)N4C(=O)[C@@H]3CC3(F)F)n2)cn1 (stereo partly drawn) [Compound 23, (3-(5-chloro-2-((1-methyl-1H-pyrazol-4-yl)amino)pyrimidin-4-yl)-8-azabicyclo[3.2.1]oct-2-en-8-yl)((S)-2,2-difluorocyclopropyl)methanone]	< 100
NC(=O)C1(n2cc(Nc3nccc(C4=CC5CCC(C4)N5C(=O)[C@@H]4CC4(F)F)n3)cn2)CC1 (stereo partly drawn) [Compound 39, 1-(4-((4-(8-((S)-2,2-Difluorocyclopropane-1-carbonyl)-8-azabicyclo[3.2.1]oct-2-en-3-yl)pyrimidin-2-yl)amino)-1H-pyrazol-1-yl)cyclopropane-1-carboxamide]	> 1000
O=C([C@@H]1CC1(F)F)N1C2C=C(c3ccnc(Nc4cnn(C5COC5)c4)n3)CC1CC2 (stereo partly drawn) [Compound 37, ((S)-2,2-difluorocyclopropyl)(3-(2-((1-(oxetan-3-yl)-1H-pyrazol-4-yl)amino)pyrimidin-4-yl)-8-azabicyclo[3.2.1]oct-2-en-8-yl)methanone]	300 to 1000
Cc1cnc(Nc2cnn(CC(C)(C)O)c2)nc1C1=CC2CCC(C1)N2C(=O)NCC(F)(F)F (stereo not drawn) [Compound 29, 3-(2-((1-(2-hydroxy-2-methylpropyl)-1H-pyrazol-4-yl)amino)-5-methylpyrimidin-4-yl)-N-(2,2,2-trifluoroethyl)-8-azabicyclo[3.2.1]oct-2-ene-8-carboxamide]	< 100
Cn1cc(Nc2nccc(C3=CC4CCC(C3)N4C(=O)C(F)(F)C3CC3)n2)cn1 (stereo not drawn) [Compound 75, 2-cyclopropyl-2,2-difluoro-1-(3-(2-((1-methyl-1H-pyrazol-4-yl)amino)pyrimidin-4-yl)-8-azabicyclo[3.2.1]oct-2-en-8-yl)ethan-1-one]	100 to 300
